Source: patent publication US11541028B2, “Peptide pharmaceuticals for treatment of NASH and other disorders” (Mederis Diabetes LLC, priority 2018, dated 2023)
Bridge positions count the residues as written; N and C are the ends. Square brackets hold non-standard residues; d marks the D form. Peptide text beside a SMILES is read from it. * marks the point of attachment. βGlcA(1-O-hexadecyl) = CCCCCCCCCCCCCCCCO[C@@H]1O[C@H](C(=O)*)[C@@H](O)[C@H](O)[C@H]1O; Aib = CC(C)(N)C(=O)O

Columns and labels:
[1] = system: db/db mice; assay: Glucose-lowering activity in db/db mice; assay type: in vivo; settings: for time for which elevated blood glucose level was reduced to the normal range: 250 nmol/kg subcutaneously at t=0 and 7 hr (FIG. 9)
Description: The 60 female db/db B6BKS (D) Leprdb/J (strain 000697) mice for this study were about 8-9 weeks old at arrival (Jackson Laboratory, Bar Harbor, Me.). […] One group of 8 female mice served as the vehicle control and received the vehicle, 0.2% BSA in saline, pH 7.4. One additional group of 8 female mice received the positive-control compound, liraglutide, at a dose level of 50 nmoles/kg. The test compounds, vehicle and positive-control compound were subcutaneously injected at a dose volume of 6 mL/kg on day 1 at about 0, 7 and 24 hours.
Clinical observations were conducted at receipt, prior to randomization, and daily from days 1 to 5. Body weights were measured and recorded at receipt, prior to randomization, and daily from days 1 to 5. Food consumption was measured and recorded daily from days 1 to 5. Blood samples for glucose analysis were collected pre-study (day −3) and at 0, 1, 2, 4, 8, 10, 24, 48, 72 and 96 hours following the first dose on day 1. At study termination all animals were euthanized, and the carcasses were discarded without further evaluation.

[2] = target: T1, human GLP-1 receptor (Homo sapiens, UniProt P43220); assay: DiscoveRx LeadHunter cellular assay, cAMP stimulation, GLP-1 receptor in CHO cells; assay type: cell-based; settings: human GLP-1 receptor in CHO cells (DiscoveRx); read-out: EC50 cAMP GLP-1 R
T1 construct: host or cells: CHO cells
Description: (§1) A further series of cellular assays was carried out with standard cellular assays (DiscoveRx, LeadHunter assays) using readout of cAMP stimulation or arrestin activation. Compounds were weighed precisely in an amount of about 1 mg and shipped to DiscoveRx for dilution and assay.

[3] = target: T2, human glucagon receptor (Homo sapiens, UniProt P47871); assay: DiscoveRx LeadHunter cellular assay, cAMP stimulation, glucagon receptor in CHO cells; assay type: cell-based
T2 construct: host or cells: CHO cells
T2 sequence (P47871 26-477): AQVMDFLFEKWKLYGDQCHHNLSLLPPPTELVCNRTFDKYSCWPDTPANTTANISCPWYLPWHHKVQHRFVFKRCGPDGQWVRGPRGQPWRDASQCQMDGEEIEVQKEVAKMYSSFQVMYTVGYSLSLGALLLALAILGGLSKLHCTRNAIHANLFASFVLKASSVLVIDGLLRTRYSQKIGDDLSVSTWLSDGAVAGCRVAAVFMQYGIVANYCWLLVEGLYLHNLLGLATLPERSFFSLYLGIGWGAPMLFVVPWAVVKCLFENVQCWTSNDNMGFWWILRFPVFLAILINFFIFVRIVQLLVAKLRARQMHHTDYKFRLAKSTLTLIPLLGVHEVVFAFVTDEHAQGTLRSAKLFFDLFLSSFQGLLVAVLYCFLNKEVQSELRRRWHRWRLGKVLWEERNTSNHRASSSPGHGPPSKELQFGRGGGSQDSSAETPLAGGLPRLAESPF
Description: as §1

T1 sequence (P43220 24-463): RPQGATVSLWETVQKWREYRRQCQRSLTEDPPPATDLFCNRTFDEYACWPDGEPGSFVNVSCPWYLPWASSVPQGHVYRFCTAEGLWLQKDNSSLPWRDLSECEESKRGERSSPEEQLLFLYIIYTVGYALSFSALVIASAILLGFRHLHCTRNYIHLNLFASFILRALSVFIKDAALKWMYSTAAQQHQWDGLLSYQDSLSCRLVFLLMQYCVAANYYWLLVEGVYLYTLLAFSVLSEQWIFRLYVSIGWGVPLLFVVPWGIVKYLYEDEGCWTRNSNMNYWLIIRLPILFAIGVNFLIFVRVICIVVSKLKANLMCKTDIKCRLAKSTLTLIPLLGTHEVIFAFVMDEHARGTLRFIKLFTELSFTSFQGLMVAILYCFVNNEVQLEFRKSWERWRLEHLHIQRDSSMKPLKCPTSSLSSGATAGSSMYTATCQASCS

SMILES	time for which elevated blood glucose level was reduced to the normal range ([1]; db/db mice)	db/db Mice-Mean Blood Glucose (mg/dL) 0 hr ([1]; dose 250 nmole/kg sc)	db/db Mice-Mean Blood Glucose (mg/dL) 10 hr ([1]; dose 250 nmole/kg sc)	db/db Mice-Mean Blood Glucose (mg/dL) 24 hr ([1]; dose 250 nmole/kg sc)	db/db Mice-Mean Blood Glucose (mg/dL) 48 hr ([1]; dose 250 nmole/kg sc)	other results
CCCCCCCCO[C@@H]1O[C@H](C(=O)NCCCC[C@H](NC(=O)[C@@H](NC(=O)[C@H](Cc2ccccc2)NC(=O)[C@H](CCC(=O)O)NC(=O)[C@@H]2CCCCNC(=O)CC[C@H](NC(=O)[C@H](CC(=O)O)NC(=O)[C@H](CC(C)C)NC(=O)[C@H](Cc3ccc(O)cc3)NC(=O)[C@H](CCCCN)NC(=O)[C@H](CO)NC(=O)[C@H](Cc3ccc(O)cc3)NC(=O)[C@H](CC(=O)O)NC(=O)[C@H](CO)NC(=O)[C@@H](NC(=O)[C@H](Cc3ccccc3)NC(=O)[C@@H](NC(=O)CNC(=O)[C@H](CCC(N)=O)NC(=O)C(C)(C)NC(=O)[C@@H](N)Cc3c[nH]cn3)[C@@H](C)O)[C@@H](C)O)C(=O)N[C@@H](CCC(N)=O)C(=O)N[C@@H](C)C(=O)N[C@@H](C)C(=O)N2)[C@@H](C)CC)C(=O)N[C@@H](Cc2c[nH]c3ccccc23)C(=O)N[C@@H](CC(C)C)C(=O)N[C@@H](CC(C)C)C(=O)N[C@@H](CCC(N)=O)C(=O)N[C@H](C(N)=O)[C@@H](C)O)[C@@H](O)[C@H](O)[C@H]1O [EU-A992]	around 72 hr	405 mg/dL	104 mg/dL	112 mg/dL	130 mg/dL	–
CCCCCCCCCCCCO[C@@H]1O[C@H](C(=O)NCCCC[C@H](NC(=O)[C@@H](NC(=O)[C@H](Cc2ccccc2)NC(=O)[C@H](CCC(=O)O)NC(=O)[C@@H]2CCCCNC(=O)CC[C@H](NC(=O)[C@H](CC(=O)O)NC(=O)[C@H](CC(C)C)NC(=O)[C@H](Cc3ccc(O)cc3)NC(=O)[C@H](CCCCN)NC(=O)[C@H](CO)NC(=O)[C@H](Cc3ccc(O)cc3)NC(=O)[C@H](CC(=O)O)NC(=O)[C@H](CO)NC(=O)[C@@H](NC(=O)[C@H](Cc3ccccc3)NC(=O)[C@@H](NC(=O)CNC(=O)[C@H](CCC(N)=O)NC(=O)C(C)(C)NC(=O)[C@@H](N)Cc3c[nH]cn3)[C@@H](C)O)[C@@H](C)O)C(=O)N[C@@H](CCC(N)=O)C(=O)N[C@@H](C)C(=O)N[C@@H](C)C(=O)N2)[C@@H](C)CC)C(=O)N[C@@H](Cc2c[nH]c3ccccc23)C(=O)N[C@@H](CC(C)C)C(=O)N[C@@H](CC(C)C)C(=O)N[C@@H](CCC(N)=O)C(=O)N[C@H](C(N)=O)[C@@H](C)O)[C@@H](O)[C@H](O)[C@H]1O [EU-A993]	–	503 mg/dL	305 mg/dL	324 mg/dL	426 mg/dL	–
CCCCCCCCCCCCCCO[C@@H]1O[C@H](C(=O)NCCCC[C@H](NC(=O)[C@@H](NC(=O)[C@H](Cc2ccccc2)NC(=O)[C@H](CCC(=O)O)NC(=O)[C@@H]2CCCCNC(=O)CC[C@H](NC(=O)[C@H](CC(=O)O)NC(=O)[C@H](CC(C)C)NC(=O)[C@H](Cc3ccc(O)cc3)NC(=O)[C@H](CCCCN)NC(=O)[C@H](CO)NC(=O)[C@H](Cc3ccc(O)cc3)NC(=O)[C@H](CC(=O)O)NC(=O)[C@H](CO)NC(=O)[C@@H](NC(=O)[C@H](Cc3ccccc3)NC(=O)[C@@H](NC(=O)CNC(=O)[C@H](CCC(N)=O)NC(=O)C(C)(C)NC(=O)[C@@H](N)Cc3c[nH]cn3)[C@@H](C)O)[C@@H](C)O)C(=O)N[C@@H](CCC(N)=O)C(=O)N[C@@H](C)C(=O)N[C@@H](C)C(=O)N2)[C@@H](C)CC)C(=O)N[C@@H](Cc2c[nH]c3ccccc23)C(=O)N[C@@H](CC(C)C)C(=O)N[C@@H](CC(C)C)C(=O)N[C@@H](CCC(N)=O)C(=O)N[C@H](C(N)=O)[C@@H](C)O)[C@@H](O)[C@H](O)[C@H]1O [EU-A994]	–	–	–	–	–	body weight changes versus vehicle ([1]; db/db mice, high-dose (300 nmoles/kg) sc at 0, 7 and 24 hours, days 2 and 3): Significant body weight changes versus vehicle; glucose levels versus vehicle ([1]; db/db mice, high-dose (300 nmoles/kg), at 10 and 24 hr): significantly different from vehicle; food consumption versus liraglutide ([1]; db/db mice, high-dose (300 nmoles/kg), day 1): significantly different from liraglutide; db/db Mice-Mean Blood Glucose (mg/dL) 0 hr ([1]; dose 300 nmole/kg sc): 554 mg/dL; db/db Mice-Mean Blood Glucose (mg/dL) 10 hr ([1]; dose 300 nmole/kg sc): 242 mg/dL; db/db Mice-Mean Blood Glucose (mg/dL) 24 hr ([1]; dose 300 nmole/kg sc): 209 mg/dL; db/db Mice-Mean Blood Glucose (mg/dL) 48 hr ([1]; dose 300 nmole/kg sc): 385 mg/dL
CCCCCCCCCCCCO[C@@H]1O[C@H](CO[C@H]2O[C@H](C(=O)NCCCC[C@H](NC(=O)[C@@H](NC(=O)[C@H](Cc3ccccc3)NC(=O)[C@H](CCC(=O)O)NC(=O)[C@@H]3CCCCNC(=O)CC[C@H](NC(=O)[C@H](CC(=O)O)NC(=O)[C@H](CC(C)C)NC(=O)[C@H](Cc4ccc(O)cc4)NC(=O)[C@H](CCCCN)NC(=O)[C@H](CO)NC(=O)[C@H](Cc4ccc(O)cc4)NC(=O)[C@H](CC(=O)O)NC(=O)[C@H](CO)NC(=O)[C@@H](NC(=O)[C@H](Cc4ccccc4)NC(=O)[C@@H](NC(=O)CNC(=O)[C@H](CCC(N)=O)NC(=O)C(C)(C)NC(=O)[C@@H](N)Cc4c[nH]cn4)[C@@H](C)O)[C@@H](C)O)C(=O)N[C@@H](CCC(N)=O)C(=O)N[C@@H](C)C(=O)N[C@@H](C)C(=O)N3)[C@@H](C)CC)C(=O)N[C@@H](Cc3c[nH]c4ccccc34)C(=O)N[C@@H](CC(C)C)C(=O)N[C@@H](CC(C)C)C(=O)N[C@@H](CCC(N)=O)C(=O)N[C@H](C(N)=O)[C@@H](C)O)[C@H](O)[C@H](O)[C@H]2O)[C@@H](O)[C@H](O)[C@H]1O [EU-A1023]	–	508 mg/dL	264 mg/dL	194 mg/dL	375 mg/dL	db/db Mice-Mean Blood Glucose (mg/dL) 0 hr ([1]; dose 50 nmole/kg sc): 507 mg/dL; db/db Mice-Mean Blood Glucose (mg/dL) 10 hr ([1]; dose 50 nmole/kg sc): 310 mg/dL; db/db Mice-Mean Blood Glucose (mg/dL) 24 hr ([1]; dose 50 nmole/kg sc): 355 mg/dL; db/db Mice-Mean Blood Glucose (mg/dL) 48 hr ([1]; dose 50 nmole/kg sc): 375 mg/dL
CCCCCCCCCCO[C@@H]1O[C@H](C(=O)NCCCC[C@H](NC(=O)[C@@H](NC(=O)[C@H](Cc2ccccc2)NC(=O)[C@H](CCC(=O)O)NC(=O)[C@@H]2CCCCNC(=O)CC[C@H](NC(=O)[C@H](CC(=O)O)NC(=O)[C@H](CC(C)C)NC(=O)[C@H](Cc3ccc(O)cc3)NC(=O)[C@H](CCCCN)NC(=O)[C@H](CO)NC(=O)[C@H](Cc3ccc(O)cc3)NC(=O)[C@H](CC(=O)O)NC(=O)[C@H](CO)NC(=O)[C@@H](NC(=O)[C@H](Cc3ccccc3)NC(=O)[C@@H](NC(=O)CNC(=O)[C@H](CCC(N)=O)NC(=O)C(C)(C)NC(=O)[C@@H](N)Cc3c[nH]cn3)[C@@H](C)O)[C@@H](C)O)C(=O)N[C@@H](CCC(N)=O)C(=O)N[C@@H](C)C(=O)N[C@@H](C)C(=O)N2)[C@@H](C)CC)C(=O)N[C@@H](Cc2c[nH]c3ccccc23)C(=O)N[C@@H](CC(C)C)C(=O)N[C@@H](CC(C)C)C(=O)N[C@@H](CCC(N)=O)C(=O)N[C@H](C(N)=O)[C@@H](C)O)[C@@H](O)[C@H](O)[C@H]1O [EU-A1167]	around 72 hr	379 mg/dL	171 mg/dL	117 mg/dL	113 mg/dL	–
CCCCCCCCCCCCCCCCO[C@@H]1O[C@H](C(=O)NCCCC[C@H](NC(=O)[C@H](C)NC(=O)[C@H](C)NC(=O)[C@H](CCC(N)=O)NC(=O)[C@H](CO)NC(=O)[C@H](CC(=O)O)NC(=O)[C@@H]2CCCCNC(=O)CC[C@H](NC(=O)[C@H](CC(=O)O)NC(=O)[C@H](CO)NC(=O)[C@@H](NC(=O)[C@H](Cc3ccccc3)NC(=O)[C@@H](NC(=O)CNC(=O)[C@H](CCC(N)=O)NC(=O)C(C)(C)NC(=O)[C@@H](N)Cc3c[nH]cn3)[C@@H](C)O)[C@@H](C)O)C(=O)N[C@@H](CO)C(=O)N[C@@H](CCCCN)C(=O)N[C@@H](Cc3ccc(O)cc3)C(=O)N2)C(=O)N[C@@H](CCC(=O)O)C(=O)N[C@@H](Cc2ccccc2)C(=O)N[C@H](C(=O)N[C@@H](CCC(=O)O)C(=O)N[C@@H](Cc2c[nH]c3ccccc23)C(=O)N[C@@H](CC(C)C)C(=O)N[C@@H](CC(C)C)C(=O)N[C@@H](CCC(N)=O)C(=O)N[C@H](C(N)=O)[C@@H](C)O)[C@@H](C)CC)[C@@H](O)[C@H](O)[C@H]1O [EU-A1848] (H-H[Aib]QGTFTSDESKYKDSQAAK(βGlcA(1-O-hexadecyl))EFIEWLLQT-NH2; lactam 10-14; N-terminus assumed)	–	–	–	–	–	EC50 [2]: 0.06 nM; EC50 [3]: 3.06 nM
